The structures appear in SMILES notation. In brackets after ≈: the same amount, converted by molar mass.

This test concerns Schistosoma mansoni. Nature of the test: Anthelmintic activity against Schistosoma mansoni. The format is functional, organism-based.
Usually IC50 stands for the midpoint of a concentration-inhibition curve. Low values mean greater potency in that assay, high ones weaker potency in that assay. `CC1N=C(c2ccccc2Cl)c2c(/N=N/c3c(F)cc(O)cc3F)cccc2NC1=O` (centres undefined) registered an IC50 of 3.8 µg/mL (≈ 8.62 µM).

The compound `CC1N=C(c2ccccc2Cl)c2c(/N=N/c3ccc(O)cc3)cccc2NC1=O` (centres undefined) yielded an IC50 of over 10 µg/mL. For `CC1NC(c2ccccc2Cl)c2cc([N+](=O)[O-])ccc2NC1=O` (centres undefined) the value was 1.3 µg/mL (≈ 3.92 µM). On to `CC1N=C(c2ccccc2Cl)c2c(/N=N/c3ccc(O)cc3Br)cccc2NC1=O` (centres undefined), for which the IC50 came to 10 µg/mL (≈ 20.7 µM). In the case of `CC1N=C(c2ccccc2Cl)c2cc([N+](=O)[O-])ccc2NC1=S` (centres undefined) it was 0.35 µg/mL (≈ 1.01 µM); in that of `Cc1cc(C)c(O)c(/N=N/c2cccc3c2C(c2ccccc2Cl)=NC(C)C(=O)N3)c1` (centres undefined), over 10 µg/mL. The compound `CC1NC(c2ccccc2Cl)c2cc([N+](=O)[O-])ccc2NC1=S` (centres undefined) registered an IC50 of 4.75 µg/mL (≈ 13.7 µM). With `CCc1cc(/N=N/c2cccc3c2C(c2ccccc2Cl)=NC(C)C(=O)N3)ccc1O` (centres undefined), it took 5.79 µg/mL (≈ 13.4 µM) to reach half-maximal inhibition (IC50). For `CC1N=C(c2ccccc2Cl)c2c(/N=N\c3ccc(O)c4ccccc34)cccc2NC1=O` (centres undefined) the value was 9.1 µg/mL (≈ 20 µM); for `C[C@@H]1N=C(c2ccccc2Cl)c2cc([N+](=O)[O-])ccc2NC1=O` [MECLONAZEPAM], 0.37 µg/mL (≈ 1.12 µM). In the case of `CC1N=C(c2ccccc2Cl)c2cc(N)ccc2NC1=O` (centres undefined) it was over 10 µg/mL; in that of `CC1N=C(c2ccccc2Cl)c2c(/N=N/c3c(Cl)cc(O)cc3Cl)cccc2NC1=O` (centres undefined), 5.79 µg/mL (≈ 12.2 µM); in that of `CC1N=C(c2ccccc2Cl)c2c(/N=N/c3ccc(O)c(C(C)C)c3)cccc2NC1=O` (centres undefined), 5.79 µg/mL (≈ 13 µM). With `CC1N=C(c2ccccc2Cl)c2c(/N=N\c3c(O)ccc4ccccc34)cccc2NC1=O` (centres undefined), the IC50 was over 10 µg/mL.
